{
  "source": "patent US8415296B2",
  "about": "“Oxyntomodulin peptide analogue” (Eli Lilly and Company, priority 2009, dated 2013)",
  "format_in_all_cases": "in vivo",
  "key": {"[1]": {"assay": "Food intake, body weight and body composition in diet-induced obese (DIO) mice", "conditions": "for reduction of cumulative food intake compared to the vehicle group: end of 2-week study; for Fat mass loss (g fat weight change for 14 days) / Overall weight loss (g weight change for 14 days) / Total food intake (g total for 14 days): mean ± SEM", "procedure": "Three to four months old male diet-induced obese (DIO) mice are individually housed in a temperature-controlled (24° C.) facility with a 12 hour light/dark cycle (lights on 22:00), and have free access to food and water. After 2 weeks acclimation to the facility, mice are randomized to treatment groups (n=8-10/group), each group having similar mean body weight and fat mass. Mice are subcutaneously (sc) injected with vehicle solution and weighed for 2 days to acclimate them to the procedures.\nBody weight and the weight of food plus the hopper are measured at the same time. Food consumed in the preceeding 24 hours is calculated by subtracting current weight of food plus the hopper from that of the previous day. Absolute changes in body weight are calculated by subtracting the body weight of the animal prior to the first injection. On days 1 and 14 total fat mass is measured by nuclear magnetic resonance (NMR) using an Echo Medical System (Houston, Tex.) instrument. Fat free mass is calculated by subtracting fat mass from total body weight."}, "[2]": {"assay": "Oral glucose tolerance test after 2-week treatment in DIO mice", "conditions": "for Glucose AUC, MEAN: oral glucose load 2 g/kg, 0 to 120 min", "procedure": "(§1) Fifty-six hours after the fifth injection as described in Example 7 in DIO mice, mice are fasted for 16 hours prior to the start of the glucose tolerance test. At time 0, animals are given 2 g/kg dextrose by oral gavage (Table 3, Study 1) or intraperitoneal (IP) injection (Table 4, Study 2). Blood is collected by tail vein bleeding at 0, 15, 30, 60 and 120 minutes after glucose challenge. Glucose concentration is measured by glucometer."}, "[3]": {"assay": "Intraperitoneal glucose tolerance test after 2-week treatment in DIO mice", "conditions": "ip glucose load 2 g/kg, 0 to 120 min", "procedure": "as §1"}, "[4]": {"assay": "Intraperitoneal glucose tolerance test in lean mice", "conditions": "IPGTT; for Glucose AUC, MEAN: 0 to 30 min; for Insulin AUC, MEAN: plasma insulin 0 to 30 min", "procedure": "Nine week old male C57BL/6 mice are used in the study Animals are randomized into groups based on fed body weight. […] Food is removed at the time of injection of peptide or vehicle. At time 0, animals are given 2 g/kg dextrose by IP injection. Blood is collected by tail vein bleeding at 0, 3, 6, 12 and 30 minutes after glucose challenge. Glucose concentration is measured by glucometer. Insulin is measure by Mesoscale."}, "[5]": {"assay": "Oral glucose tolerance test in ob/ob mice", "conditions": "for Glucose AUC, MEAN: OGTT, 0 to 120 min", "procedure": "(§2) Two to three months old male ob/ob mice are individually housed in a temperature-controlled (24° C.) facility with a 12 hour light/dark cycle (lights on 2200 hours), and have free access to food and water. After at least 2 weeks of acclimation to the facility, 3-hours fasting blood glucose is measured by tail vein bleeding at 9 AM. Mice with blood glucose under 180 mg/dL are not used. Remaining animals are randomized to treatment groups (N=7/group), each group having similar average blood glucose level. The mice are given access to food until the time of injection. […] Food is removed at the time of injection. An OGTT (Table 7) or IPGTT (Table 8) is performed 16 hours after the peptide injection. At time 0, animals are given 2 g/kg dextrose by oral gavage (Table 7) or intraperitoneal injection (Table 8). Blood is collected by tail vein bleeding at 0, 15, 30, 60 and 120 minutes after glucose challenge. Blood glucose concentration is measured by glucometer."}, "[6]": {"assay": "Intraperitoneal glucose tolerance test in ob/ob mice", "conditions": "IPGTT, 0 to 120 min, 7.5 nmole/kg 16 hours before", "procedure": "as §2"}, "[7]": {"conditions": "Study 1, DIO mice, 7.5 nmole/kg sc every 3 days"}, "[8]": {"conditions": "Study 1, DIO mice, 15 nmole/kg sc every 3 days"}, "[9]": {"conditions": "Study 1, DIO mice, 30 nmole/kg sc every 3 days"}, "[10]": {"conditions": "Study 2, DIO mice, 7.5 nmole/kg sc every 3 days"}, "[11]": {"conditions": "Study 2, DIO mice, 22.5 nmole/kg sc every 3 days"}},
  "note": "Marks after values point to notes of the source that are not given here.",
  "data": [
    {"substance": "His-(D-Ser)-Gln-Gly-Thr-Phe-Thr-Ser-Asp-(1-Nal)-Ser-Lys-Tyr-Leu-Asp-Glu-Lys-Ala-Ala-Gln-Glu-Phe-Val-Gln-Trp-Leu-Leu-Asn-(Aib)-Ala-Arg-Asn-Arg-Asn-Asn-Ile-Ala-Cys(20 kDa PEG)-Cys(20 kDa PEG)", "values": [
      {"measurement": "cumulative weight loss compared to the vehicle group", "setting": "[1]; Study 1, 7.5 nmole/kg every 3 days, 2 weeks", "value": "about 6%"},
      {"measurement": "vehicle controlled cumulative weight loss", "setting": "[1]; Study 1, 15 nmole/kg every 3 days, 2 weeks", "value": 10, "unit": "%"},
      {"measurement": "reduction of cumulative food intake compared to the vehicle group", "setting": "[1]; Study 1, 15 nmole/kg", "value": 21, "unit": "%"},
      {"measurement": "vehicle controlled cumulative weight loss", "setting": "[1]; Study 1, 30 nmole/kg every 3 days, 2 weeks", "value": 15, "unit": "%"},
      {"measurement": "reduction of cumulative food intake compared to the vehicle group", "setting": "[1]; Study 1, 30 nmole/kg", "value": 27, "unit": "%"},
      {"measurement": "Fat mass loss (g fat weight change for 14 days)", "setting": "[1]; [7]", "value": "-1.1 ± 0.3", "unit": "g"},
      {"measurement": "Overall weight loss (g weight change for 14 days)", "setting": "[1]; [7]", "value": "-1.7 ± 0.3", "unit": "g"},
      {"measurement": "Total food intake (g total for 14 days)", "setting": "[1]; [7]", "value": "36.5 ± 1.2", "unit": "g"},
      {"measurement": "Fat mass loss (g fat weight change for 14 days)", "setting": "[1]; [8]", "value": "-2.7 ± 0.2", "unit": "g"},
      {"measurement": "Overall weight loss (g weight change for 14 days)", "setting": "[1]; [8]", "value": "-3.5 ± 0.3", "unit": "g"},
      {"measurement": "Total food intake (g total for 14 days)", "setting": "[1]; [8]", "value": "31.4 ± 0.9", "unit": "g"},
      {"measurement": "Fat mass loss (g fat weight change for 14 days)", "setting": "[1]; [9]", "value": "-4.0 ± 0.3", "unit": "g"},
      {"measurement": "Overall weight loss (g weight change for 14 days)", "setting": "[1]; [9]", "value": "-5.6 ± 0.4", "unit": "g"},
      {"measurement": "Total food intake (g total for 14 days)", "setting": "[1]; [9]", "value": "29.0 ± 1.3", "unit": "g"},
      {"measurement": "Fat mass loss (g fat weight change for 14 days)", "setting": "[1]; [10]", "value": "-1.6 ± 0.2", "unit": "g"},
      {"measurement": "Overall weight loss (g weight change for 14 days)", "setting": "[1]; [10]", "value": "-2.5 ± 0.3", "unit": "g"},
      {"measurement": "Total food intake (g total for 14 days)", "setting": "[1]; [10]", "value": "33.3 ± 0.6", "unit": "g"},
      {"measurement": "Fat mass loss (g fat weight change for 14 days)", "setting": "[1]; [11]", "value": "-3.8 ± 0.2", "unit": "g"},
      {"measurement": "Overall weight loss (g weight change for 14 days)", "setting": "[1]; [11]", "value": "-5.2 ± 0.2", "unit": "g"},
      {"measurement": "Total food intake (g total for 14 days)", "setting": "[1]; [11]", "value": "28.7 ± 0.6", "unit": "g"},
      {"measurement": "decrease of body weight", "setting": "[1]; Study 2, high dose (22.5 nmole/kg) every 3 days, 2 weeks", "value": "~10", "unit": "%"},
      {"measurement": "decrease of body weight", "setting": "[1]; Study 2, low dose (7.5 nmole/kg) every 3 days, 2 weeks", "value": "about 5%"},
      {"measurement": "blood glucose at all time points before and after the oral glucose challenge vs vehicle", "setting": "[2]; all doses", "value": "significantly lowered"},
      {"measurement": "Glucose AUC, MEAN", "setting": "[2]; 7.5 nmole/kg", "value": "13802* mg*min/dL"},
      {"measurement": "Glucose AUC, MEAN", "setting": "[2]; 15 nmole/kg", "value": "12668* mg*min/dL"},
      {"measurement": "Glucose AUC, MEAN", "setting": "[2]; 30 nmole/kg", "value": "13056* mg*min/dL"},
      {"measurement": "Glucose AUC, MEAN", "setting": "[3]; 7.5 nmole/kg", "value": "19198* mg*min/dL"},
      {"measurement": "Glucose AUC, MEAN", "setting": "[3]; 22.5 nmole/kg", "value": "15720* mg*min/dL"},
      {"measurement": "Glucose AUC, MEAN", "setting": "[4]; 5 nmole/kg 16 hours before", "value": "6287* mg*min/dL"},
      {"measurement": "Glucose AUC, MEAN", "setting": "[4]; 15 nmole/kg 16 hours before", "value": "6881* mg*min/dL"},
      {"measurement": "Insulin AUC, MEAN", "setting": "[4]; 5 nmole/kg", "value": "33.29* ng*min/mL"},
      {"measurement": "Insulin AUC, MEAN", "setting": "[4]; 15 nmole/kg", "value": "58.32* ng*min/mL"},
      {"measurement": "Glucose AUC, MEAN", "setting": "[5]; 7.5 nmole/kg 16 hours before", "value": "12103* mg*min/dL"},
      {"measurement": "Glucose AUC, MEAN", "setting": "[5]; 15 nmole/kg 16 hours before", "value": "14837* mg*min/dL"},
      {"measurement": "blood glucose in ob/ob mice", "setting": "[5]; single injection", "value": "normalized blood glucose"},
      {"measurement": "Glucose AUC, MEAN", "setting": "[6]", "value": "16944* mg*min/dL"}
    ]}
  ]
}
